US4879313A, “Novel platelet-aggregation inhibitors” (Mosanto Company, priority 1988, dated 1989)

What was measured:
[1] = system: ADP-induced platelet aggregation in human PRP; test: In-vitro human platelet aggregation in PRP (ADP-induced); format: cell-based; conditions: for HUMAN PRP % INHIBITION AT 10^-4 M: compound at 10^-4 M, human platelet-rich plasma; for IC50: human PRP, linear regression of the dose response curve
Experimental: In one assay, platelet aggregation is examined in platelet-rich plasma which also is rich in fibrinogen and other plasma proteins. The % inhibition is determined for the test compound by comparing the extent of platelet aggregation in the presence and absence of the test compound.
Healthy male or female donors who have not taken any antiplatelet drugs for at least 2 weeks were fasted for 8 hours prior to drawing blood; then 30 ml whole blood was collected using a butterfly needle and 30 cc plastic syringe with 3 ml of 0.129 M buffered sodium citrate (3.8%). The syringe was rotated carefully as blood was drawn to mix the citrate. Platelet-richplasma (PRP) was prepared by centrifugation at 100×g for 10 minutes at room temperature, allowing the centrifuge to coast to a stop without braking. The PRP was removed from the blood with a plastic pipette and placed in a plastic capped, 50 ml Corning conical sterile centrifuge tube which was held at room temperature. Platelet poor plasma (PPP) was prepared by centrifuging the remaining blood at 2000×g for 15 minutes at room temperature allowing the centrifuge to coast to a stop without braking. The PRP was adjusted with PPP to a count of 2-3×10^8 platelets per ml. 400 μl of the PRP preparation and 50 μl of the compound to be tested or saline were preincubated for 1 minute at 37° C. in a Payton aggregometer (Payton Scientific, Inc., Buffalo, N.Y.). 50 μl of adenosine 5'-diphosphate (ADP) (50 μM) was added to the cuvettes and the aggregation was monitored for 1 minute. All compounds are tested in duplicate. Results are calculated as follows: Percent of control=[(maximal OD minus initial OD of compound) divided by (maximal OD minus initial OD of control saline)]×100. The % inhibition=100-(percent of control).
The compounds tested and their activity results in % inhibition at 10^-4 M and median inhibitory concentration (IC50) were as recorded in Table 1.

[2] = system: collagen induced rat thrombocytopenia (platelet aggregation); test: In vivo rat thrombocytopenia (collagen induced)
Experimental: In another test, the effect of the peptide mimetic compound on collagen induced thrombocytopenia (platelet aggregation) is measured in vivo in the rat. Again, the % inhibition is determined for the test compound and compared against a saine or ethanol vehicle in the absence of the test compound.
Male rats [Charles River, CRL:CD(SD), 400-450 g] were used. The rats were anesthetized with Na pentabarbital (65 mg/kg, Vet Labs, Limited, lnc., Lenexa, Kan.). Two incisions were made to expose both jugular veins. Using an infusion pump (Harvard Apparatus, South Natick, Mass.) and a 5 cc syringe with a 19 g. butterfly, the test compound or vehicle was infused into the left jugular vein at a rate of 0.39 ml/min for 3 min. After 2 min of compound/vehicle infusion, collagen (60 μg/kg) (Helena Laboratories,Beaumont, Tex.) was injected with a one ml syringe into the right jugular vein. The body cavity was opened and the vena cava was exposed for blood sampling. One min after the collagen injection, compound infusion was stopped and blood was sampled from the vena cava (within 30 sec) with a 3 cc syringe containing […] of 4.5% EDTA/Tris (0.1 M) (pH 7.35) plus 150 μM indomethacin. Platelet rich plasma (PRP) was prepared by centrifuging the blood at 126×g for 10 min. Five μ1 of PRP was counted in 20 ml of Isoton®III in a Coulter Counter.
Percent inhibition of collagen induced aggregation was calculated by comparison of the platelet counts in animals that were treated with test compound and collagen (a) with platelet counts for animals receiving no collagen (non-aggregated control) and (b) with platelet counts for animals receiving vehicle and collagen (aggregated control).
The % inhibition of platelet aggregation in vivo and the median effective dose (ED50) of the test compounds are set forth in the following Table II.

For COc1ccc(CCNC(=O)[C@H](CC(=O)O)NC(=O)CCCCCCNC(=N)N)cc1 [7-guanidino-heptanoyl-Asp--2-(4-methoxy-phenyl)ethyl amide], the “HUMAN PRP % INHIBITION AT 10^-4 M” value [1] was 43%.

COc1ccc(CCNC(=O)C(CC(=O)O)NC(=O)CCCCCCCNC(=N)N)cc1 (centres unmarked) [8-guanidino-octanoyl-Asp-2-(4-methoxyphenyl)ethyl amide] was tested, and the “HUMAN PRP % INHIBITION AT 10^-4 M” value [1] was 100%, the “% INHIBITION AT 1 mg/kg” value ([2]; 1 mg/kg, infusion into jugular vein, collagen 60 μg/kg, rat) was 67.05% and the “effective dose relative to that required for equivalent inhibitory activity by Arg-Gly-Asp-(O-methyl-Tyr)-NH2” value ([2]; in vivo thrombocytopenia assay, fraction of reference dose) was “about one eighth”. The ED50 ([2]; infusion into jugular vein, collagen induced thrombocytopenia, rat) was 0.07 mg/kg and the “ED50 (orally active in rats)” value ([2]; oral, rats) was 7.8 mg/kg.

For COc1ccc(CCNC(=O)[C@H](CC(=O)O)NC(=O)CCCCCCCNC(=N)N)cc1OC [8-guanidino-octanoyl-Asp--2-(3,4-dimethoxy-phenyl)ethyl amide], the “HUMAN PRP % INHIBITION AT 10^-4 M” value [1] was 100% and the IC50 [1] was 12 µM.

For COc1ccc(CNC(=O)[C@H](CC(=O)O)NC(=O)CCCCCCCNC(=N)N)cc1 [8-guanidino-octanoyl-Asp--4-methoxybenzyl amide], the “HUMAN PRP % INHIBITION AT 10^-4 M” value [1] was 100% and the IC50 [1] was 33 µM.

N=C(N)NCCCCCCCC(=O)N[C@@H](CC(=O)O)C(=O)N[C@@H](Cc1ccc(-c2ccccc2)cc1)C(N)=O [8-guanidino-octanoyl-Asp--(4-phenyl)-phenylalanine amide] was tested, and the “HUMAN PRP % INHIBITION AT 10^-4 M” value [1] was 100% and the IC50 [1] was 17 µM.

In the case of COc1ccc(CCNC(=O)[C@H](CC(=O)O)NC(=O)CCCCCCCCNC(=N)N)cc1 [9-guanidino-nonanoyl-Asp-2-(4-methoxyphenyl)ethyl amide], the “HUMAN PRP % INHIBITION AT 10^-4 M” value [1] is reported as 100% and the IC50 [1] is reported as 27 µM.

For COc1ccc(CCNC(=O)[C@H](CC(=O)O)NC(=O)CCCCCCCCCNC(=N)N)cc1 [10-guanidino-decanoyl-Asp--2-(4-methoxy-phenyl)ethyl amide], the “HUMAN PRP % INHIBITION AT 10^-4 M” value [1] was 65% and the IC50 [1] was 70 µM.

COc1ccc(CCNC(=O)[C@H](CC(=O)O)NC(=O)CNCCCCNC(=N)N)cc1 [N--(4-guanidinobutyl)-Gly--Asp--2-(4-methoxy-phenyl)ethyl amide] was tested, and the “HUMAN PRP % INHIBITION AT 10^-4 M” value [1] was 0%.
